Patent publication US20130197080A1, “USE OF TERIFLUNOMIDE FOR TREATING MULTIPLE SCLEROSIS” (SANOFI, priority 2010, published 2013)
Several values for one entry are separate records, joined by “and”; a condition that tells them apart may be missing. Equal values may be shown once.

System: patients with RMS
Assay: TEMSO Phase III trial: safety and tolerability (adverse events, laboratory tests)
Details: for incidence of ALT increase (≧1×ULN) / incidence of ALT ≧3×ULN: laboratory; for proportion of patients with TEAEs potentially related to hypersensitivity/skin disorders: selected SMQs terms; for patients with increased ALT ≧3×ULN and total bilirubin ≧2×ULN: considered non drug-induced
[1] = 7 mg once daily oral, safety population (N = 368)
[2] = 14 mg once daily oral, safety population (N = 358)
[3] = teriflunomide treatment, occurred over the first 3 months, slightly more marked with 14 mg

Method: Following a screening phase of up to 4 weeks, eligible patients were randomized (1:1:1) to receive a once-daily oral dose of placebo or teriflunomide, 7 mg or 14 mg, for 108 weeks. Randomization was stratified by baseline EDSS score (≦3.5 and >3.5) and by trial site. Participants successfully completing the study were eligible to enter a long-term extension.
Safety was evaluated by the occurrence of adverse events reported by the patient or the investigator. Laboratory tests were performed during screening, at baseline, and then every 2 weeks for the first 24 weeks, then every 6 weeks until study completion. Physical and neurologic examinations were performed at Week 12 and then every 24 weeks. An abdominal ultrasound to assess pancreatic abnormalities was done prior to the study and then every 24 weeks.
Laboratory testing of liver function and complete blood cell count with differential were performed at baseline, then every 2 weeks for the first 24 weeks of treatment and every 6 weeks thereafter. Patients with any of the following adverse events were discontinued from the study and were subsequently followed-up: • Any confirmed increase (repeated value within 48 hours) in alanine aminotransferase (≧3×ULN) with or without increase in total bilirubin level • Any occurrence of confirmed neutrophil count less than 1.0×10^9 cells/L with or without infection • Any potentially life-threatening cytopenias detected during the follow-up of laboratory abnormalities as per the investigator's judgment
Laboratory testing of pancreatic enzymes was performed at baseline, then every 2 weeks for the first 24 weeks of treatment and every 6 weeks thereafter. An abdominal ultrasound was performed at baseline and then every 24 weeks until study completion. Any suspected abnormal ultrasound was followed up with a CT scan with contrast, or by MRI.
Serum pregnancy testing was performed at baseline, Week 10, Week 24 and then every 12 weeks thereafter. If the pregnancy test was positive, the study medication was discontinued, and the physician was required to inform the patient of the risk of pregnancy and to discuss the potential alternatives. If the patient decided to continue with their pregnancy, a washout was required. If the patient decided not to continue with their pregnancy, the study medication could be resumed 2 weeks after termination of the pregnancy.

What does the source list for `C/C(O)=C(\C#N)C(=O)Nc1ccc(C(F)(F)F)cc1` [teriflunomide, (Z)-2-cyano-3-hydroxy-but-2-enoic acid-(4′-trifluoromethylphenyl)-amide]?
Serious adverse event, Blood disorders: Anemia (7 mg (N = 368)): 1 (0.3%) n (%); Serious adverse event, Blood disorders: Neutropenia (7 mg (N = 368)): 0 n (%); Serious adverse event, Blood disorders: Neutrophil count decreased (7 mg (N = 368)): 0 n (%); Serious adverse event, Hepatic and hepatobiliary disorders: Alanine aminotransferase increased (7 mg (N = 368)): 5 (1.4%) n (%); Serious adverse event, Hepatic and hepatobiliary disorders: Hepatic enzyme increased (7 mg (N = 368)): 0 n (%); Serious adverse event, Hepatic and hepatobiliary disorders: Hepatitis toxic (7 mg (N = 368)): 0 n (%); Serious adverse event, Hepatic and hepatobiliary disorders: Liver injury (7 mg (N = 368)): 1 (0.3%) n (%); Serious adverse event, Hepatic and hepatobiliary disorders: Transaminases increased (7 mg (N = 368)): 1 (0.3%) n (%); Serious adverse event, Infections: Appendicitis (7 mg (N = 368)): 2 (0.5%) n (%); Serious adverse event, Infections: Bacteremia (7 mg (N = 368)): 0 n (%); Serious adverse event, Infections: Cellulitis (7 mg (N = 368)): 0 n (%); Serious adverse event, Infections: Cytomegalovirus hepatitis (7 mg (N = 368)): 0 n (%); Serious adverse event, Infections: Erysipelas (7 mg (N = 368)): 1 (0.3%) n (%); Serious adverse event, Infections: Gastroenteritis (7 mg (N = 368)): 0 n (%); Serious adverse event, Infections: Hepatitis C (7 mg (N = 368)): 0 n (%); Serious adverse event, Infections: Herpes zoster (7 mg (N = 368)): 0 n (%); Serious adverse event, Infections: Infected cyst (7 mg (N = 368)): 1 (0.3%) n (%); Serious adverse event, Infections: Lung infection (7 mg (N = 368)): 0 n (%); Serious adverse event, Infections: Pneumonia (7 mg (N = 368)): 2 (0.5%) n (%); Serious adverse event, Infections: Pyelonephritis (7 mg (N = 368)): 0 n (%); Serious adverse event, Infections: Renal abscess (7 mg (N = 368)): 0 n (%); Serious adverse event, Infections: Urinary tract infection (7 mg (N = 368)): 0 n (%); Serious adverse event, Infections: Urinary tract infection enterococcal (7 mg (N = 368)): 0 n (%); Serious adverse event, Malignant neoplasms: Breast cancer (7 mg (N = 368)): 0 n (%); Serious adverse event, Malignant neoplasms: Cervix carcinoma stage 0 (7 mg (N = 368)): 0 n (%); Serious adverse event, Malignant neoplasms: Thyroid cancer (7 mg (N = 368)): 0 n (%); Serious adverse event, Pancreatic disorders: Lipase increased (7 mg (N = 368)): 2 (0.5%) n (%); Serious adverse event, Pancreatic disorders: Pancreatitis (7 mg (N = 368)): 0 n (%); TEAE potentially related to hypersensitivity/skin reactions: Erythema (7 mg (N = 368)): 7 (1.9%) n (%); TEAE potentially related to hypersensitivity/skin reactions: Pruritus (7 mg (N = 368)): 13 (3.5%) n (%); TEAE potentially related to hypersensitivity/skin reactions: Pruritus rash (7 mg (N = 368)): 2 (0.5%) n (%); TEAE potentially related to hypersensitivity/skin reactions: Urticaria (7 mg (N = 368)): 4 (1.1%) n (%); Polyneuropathy incidence (7 mg group): 0.3%; TEAEs (patients) (7 mg group): 89.1%; TEAEs leading to treatment discontinuation (7 mg group): 9.8%; diarrhea leading to treatment discontinuation (7 mg group): 0.3%; hair thinning/decreased hair density leading to treatment discontinuation (7 mg group): 0.5%; incidence of serious hepatic disorders (ALT >8×ULN and/or ALT >3×ULN with total bilirubin >3 mg/dL and/or any hepatic event with seriousness criterion) (7 mg group): 1.9%; incidence of serious infections (7 mg group): 1.6%; induced abortions among pregnancies during the trial (7 mg group): 5; nausea leading to treatment discontinuation (7 mg group): 0.3%; neutropenia disorders (patients) (7 mg group): 2.2%; patients with mild or moderate peripheral neuropathy with conduction confirmation (7 mg group): four; proportion of patients experiencing any bone marrow TEAE (7 mg group): 9.8%; proportion of patients with TEAEs related to blood pressure increase (7 mg group): 5.4%; serious TEAEs (patients) (7 mg group): 14.1%; incidence of ALT increase (≧1×ULN) (7 mg group): 54.0%; incidence of ALT ≧3×ULN (7 mg group): 6.3%; proportion of patients with TEAEs potentially related to hypersensitivity/skin disorders (7 mg group): 10.3%; neutrophil count decrease in case of neutropenia leading to treatment discontinuation (7 mg group, single patient): 8.7e+08 L⁻¹; neutrophil count after recovery (7 mg group, single patient, three days after treatment discontinuation): 1.34e+09 L⁻¹; patients with increased ALT ≧3×ULN and total bilirubin ≧2×ULN (7 mg group): one; Any event leading to death [1]: 0 n (%); Any treatment emergent adverse event leading to discontinuation of study drug [1]: 36 (9.8) n (%); Any treatment emergent serious adverse event [1]: 52 (14.1) n (%); At least one treatment emergent adverse event [1]: 328 (89.1) n (%); TEAE Alanine aminotransferase increased (reported as adverse event by the investigator) [1]: 44 (12.0) no. of patients (%); TEAE Back pain [1]: 39 (10.6) no. of patients (%); TEAE Diarrhea [1]: 54 (14.7) no. of patients (%); TEAE Fatigue [1]: 47 (12.8) no. of patients (%); TEAE Hair thinning/decreased hair density (MedDRA: alopecia) [1]: 38 (10.3) no. of patients (%); TEAE Headache [1]: 81 (22.0) no. of patients (%); TEAE Nasopharyngitis [1]: 94 (25.5) no. of patients (%); TEAE Nausea [1]: 33 (9.0) no. of patients (%); TEAE Pain in extremity [1]: 26 (7.1) no. of patients (%); TEAE Urinary tract infection [1]: 27 (7.3) no. of patients (%); Serious adverse event, Blood disorders: Anemia (14 mg (N = 358)): 0 n (%); Serious adverse event, Blood disorders: Neutropenia (14 mg (N = 358)): 1 (0.3%) n (%); Serious adverse event, Blood disorders: Neutrophil count decreased (14 mg (N = 358)): 1 (0.3%) n (%); Serious adverse event, Hepatic and hepatobiliary disorders: Alanine aminotransferase increased (14 mg (N = 358)): 5 (1.4%) n (%); Serious adverse event, Hepatic and hepatobiliary disorders: Hepatic enzyme increased (14 mg (N = 358)): 1 (0.3%) n (%); Serious adverse event, Hepatic and hepatobiliary disorders: Hepatitis toxic (14 mg (N = 358)): 1 (0.3%) n (%); Serious adverse event, Hepatic and hepatobiliary disorders: Liver injury (14 mg (N = 358)): 0 n (%); Serious adverse event, Hepatic and hepatobiliary disorders: Transaminases increased (14 mg (N = 358)): 1 (0.3%) n (%); Serious adverse event, Infections: Appendicitis (14 mg (N = 358)): 0 n (%); Serious adverse event, Infections: Bacteremia (14 mg (N = 358)): 1 (0.3%) n (%); Serious adverse event, Infections: Cellulitis (14 mg (N = 358)): 0 n (%); Serious adverse event, Infections: Cytomegalovirus hepatitis (14 mg (N = 358)): 1 (0.3%) n (%); Serious adverse event, Infections: Erysipelas (14 mg (N = 358)): 0 n (%); Serious adverse event, Infections: Gastroenteritis (14 mg (N = 358)): 1 (0.3%) n (%); Serious adverse event, Infections: Hepatitis C (14 mg (N = 358)): 0 n (%); Serious adverse event, Infections: Herpes zoster (14 mg (N = 358)): 0 n (%); Serious adverse event, Infections: Infected cyst (14 mg (N = 358)): 0 n (%); Serious adverse event, Infections: Lung infection (14 mg (N = 358)): 0 n (%); Serious adverse event, Infections: Pneumonia (14 mg (N = 358)): 0 n (%); Serious adverse event, Infections: Pyelonephritis (14 mg (N = 358)): 3 (0.8%) n (%); Serious adverse event, Infections: Renal abscess (14 mg (N = 358)): 1 (0.3%) n (%); Serious adverse event, Infections: Urinary tract infection (14 mg (N = 358)): 1 (0.3%) n (%); Serious adverse event, Infections: Urinary tract infection enterococcal (14 mg (N = 358)): 1 (0.3%) n (%); Serious adverse event, Malignant neoplasms: Breast cancer (14 mg (N = 358)): 0 n (%); Serious adverse event, Malignant neoplasms: Cervix carcinoma stage 0 (14 mg (N = 358)): 1 (0.3%) n (%); Serious adverse event, Malignant neoplasms: Thyroid cancer (14 mg (N = 358)): 0 n (%); Serious adverse event, Pancreatic disorders: Lipase increased (14 mg (N = 358)): 0 n (%); Serious adverse event, Pancreatic disorders: Pancreatitis (14 mg (N = 358)): 0 n (%); TEAE potentially related to hypersensitivity/skin reactions: Erythema (14 mg (N = 358)): 4 (1.1%) n (%); TEAE potentially related to hypersensitivity/skin reactions: Pruritus (14 mg (N = 358)): 10 (2.8%) n (%); TEAE potentially related to hypersensitivity/skin reactions: Pruritus rash (14 mg (N = 358)): 1 (0.3%) n (%); TEAE potentially related to hypersensitivity/skin reactions: Urticaria (14 mg (N = 358)): 3 (0.8%) n (%); Polyneuropathy incidence (14 mg group): 0.8%; TEAEs (patients) (14 mg group): 90.8%; TEAEs leading to treatment discontinuation (14 mg group): 10.9%; diarrhea leading to treatment discontinuation (14 mg group): 0.3%; hair thinning/decreased hair density leading to treatment discontinuation (14 mg group): 1.4%; incidence of serious hepatic disorders (ALT >8×ULN and/or ALT >3×ULN with total bilirubin >3 mg/dL and/or any hepatic event with seriousness criterion) (14 mg group): 2.5%; incidence of serious infections (14 mg group): 2.5%; induced abortions among pregnancies during the trial (14 mg group): 1; nausea leading to treatment discontinuation (14 mg group): 0.0%; neutropenia disorders (patients) (14 mg group): 4.5%; patients who discontinued treatment due to pruritus (14 mg group): One; patients with mild or moderate peripheral neuropathy with conduction confirmation (14 mg group): six; proportion of patients experiencing any bone marrow TEAE (14 mg group): 7.5%; proportion of patients with TEAEs related to blood pressure increase (14 mg group): 5.0%; serious TEAEs (patients) (14 mg group): 15.9%; spontaneous abortions among pregnancies during the trial (14 mg group): 3; incidence of ALT increase (≧1×ULN) (14 mg group): 57.3%; incidence of ALT ≧3×ULN (14 mg group): 6.7%; proportion of patients with TEAEs potentially related to hypersensitivity/skin disorders (14 mg group): 11.2%; neutrophil count in cases of moderate neutrophil count decrease (serious AEs) (14 mg group, two patients): 9.5e+08 L⁻¹ and 9e+08 L⁻¹; neutrophil count after recovery (14 mg group, two patients, a few days later, treatment continuing): 2.09e+09 L⁻¹ and 3.82e+09 L⁻¹; patients with malignant neoplasms (14 mg group, cervix carcinoma in situ (stage 0) after 1.5 years treatment): one; patients with increased ALT ≧3×ULN and total bilirubin ≧2×ULN (14 mg group): one; Any event leading to death [2]: 0 n (%); Any treatment emergent adverse event leading to discontinuation of study drug [2]: 39 (10.9) n (%); Any treatment emergent serious adverse event [2]: 57 (15.9) n (%); At least one treatment emergent adverse event [2]: 325 (90.8) n (%); TEAE Alanine aminotransferase increased (reported as adverse event by the investigator) [2]: 51 (14.2) no. of patients (%); TEAE Back pain [2]: 41 (11.5) no. of patients (%); TEAE Diarrhea [2]: 64 (17.9) no. of patients (%); TEAE Fatigue [2]: 52 (14.5) no. of patients (%); TEAE Hair thinning/decreased hair density (MedDRA: alopecia) [2]: 47 (13.1) no. of patients (%); TEAE Headache [2]: 67 (18.7) no. of patients (%); TEAE Nasopharyngitis [2]: 93 (26.0) no. of patients (%); TEAE Nausea [2]: 49 (13.7) no. of patients (%); TEAE Pain in extremity [2]: 33 (9.2) no. of patients (%); TEAE Urinary tract infection [2]: 37 (10.3) no. of patients (%); serious opportunistic infections (across groups): no serious opportunistic infections observed; increases in amylase and lipase (mean change from baseline) (across the three treatment groups): No increases; deaths (all groups): No deaths occurred; treatment discontinuation due to increased blood pressure (all groups): No patient discontinued treatment; neutrophil count in three cases of moderate neutropenia (on teriflunomide): 9e+08 L⁻¹; adverse event potentially attributed to interstitial lung disease (SMQ terms) (teriflunomide groups): No adverse event; average increase in diastolic blood pressure (teriflunomide groups): < 2 mmHg; average increase in systolic blood pressure (teriflunomide groups): < 4 mmHg; mean reduction from baseline in lymphocyte counts [3]: 3e+08 L⁻¹; mean reduction from baseline in neutrophil counts [3]: 1e+09 L⁻¹
